Reference: ChEMBL document CHEMBL1201862, “PubChem BioAssay data set” (2004)
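Test compounds were applied to cells in 96-well plates for 48 hours at 5 doses. Abbreviation: GI50, concentration required for 50% inhibition of growth.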 Active and inactive are the calls of the source. Cut-off read from the data, not from the text of the source: active = GI50 up to about 1.1 µM and inactive = higher.

What was measured:
Assay in all cases: DTP human tumour cell line panel, 48 h
A549 = system: A549
BT-549 = system: BT-549
SK-MEL-5 = system: SK-MEL-5
UO-31 = system: UO-31
OVCAR-8 = system: OVCAR-8
NCI-H23 = system: NCI-H23
SN12C = system: SN12C
NCI-H226 = system: NCI-H226
DU-145 = system: DU-145
SK-MEL-2 = system: SK-MEL-2
MDA-MB-435 = system: MDA-MB-435
SW-620 = system: SW-620
NCI/ADR-RES = system: NCI/ADR-RES
HOP-62 = system: HOP-62
UACC-62 = system: UACC-62
Malme-3M = system: Malme-3M
COLO 205 = system: COLO 205
UACC-257 = system: UACC-257
RPMI-8226 = system: RPMI-8226

Measured: GI50

Clc1ccc2c(c1)CC1C[N+]3=C(CCCC3)C1=C2 (stereo unspecified)
inactive: A549 39.6 µM | BT-549 55.5 µM | SK-MEL-5 50.4 µM | UO-31 > 100 µM | OVCAR-8 60.7 µM | NCI-H23 69 µM | SN12C > 100 µM | NCI-H226 76.6 µM | DU-145 > 100 µM | SK-MEL-2 > 100 µM | MDA-MB-435 54.2 µM | SW-620 47.9 µM | NCI/ADR-RES > 100 µM | HOP-62 89.9 µM | UACC-62 > 100 µM | Malme-3M 36.6 µM | COLO 205 58.1 µM | UACC-257 43.9 µM

[N-]=[N+]=Nc1cc(=O)n(-c2ccccc2)c(=O)n1-c1ccccc1
inactive: A549 > 100 µM | BT-549 > 100 µM | RPMI-8226 > 100 µM | SK-MEL-5 > 100 µM | UO-31 > 100 µM | OVCAR-8 > 100 µM | NCI-H23 > 100 µM | SN12C > 100 µM | NCI-H226 > 100 µM | SK-MEL-2 > 100 µM | MDA-MB-435 > 100 µM | SW-620 > 100 µM | NCI/ADR-RES > 100 µM | HOP-62 > 100 µM | UACC-62 67 µM | Malme-3M > 100 µM | COLO 205 > 100 µM | UACC-257 > 100 µM

CC1=NC(=Cc2cccc(Cl)c2)C(=O)N1n1c(-c2ccccc2)nc2ccccc2c1=O
inactive: A549 35.8 µM | BT-549 34.7 µM | RPMI-8226 30.2 µM | SK-MEL-5 28.2 µM | UO-31 39 µM | OVCAR-8 43.4 µM | NCI-H23 25.6 µM | SN12C 40.4 µM | NCI-H226 90.4 µM | DU-145 38.9 µM | MDA-MB-435 41 µM | SW-620 55 µM | HOP-62 24.5 µM | UACC-62 23.6 µM | Malme-3M 26.9 µM | COLO 205 36.1 µM | UACC-257 28.6 µM

CCN(CC)Cc1ccc(C(=S)Nc2ccc(C)cc2)s1
inactive: A549 16.6 µM | BT-549 20.3 µM | RPMI-8226 14.7 µM | SK-MEL-5 13.4 µM | UO-31 15.5 µM | OVCAR-8 14.8 µM | NCI-H23 8.09 µM | DU-145 20.5 µM | SK-MEL-2 15.7 µM | MDA-MB-435 12.2 µM | SW-620 20.2 µM | NCI/ADR-RES 19.2 µM | HOP-62 17.5 µM | UACC-62 14.2 µM | Malme-3M 16.5 µM | COLO 205 16 µM | UACC-257 11.4 µM

CC(C)OP(=O)(CN(C)/C(F)=N\C(F)(F)F)OC(C)C
inactive: A549 > 100 µM | BT-549 > 100 µM | SK-MEL-5 > 100 µM | UO-31 > 100 µM | OVCAR-8 > 100 µM | NCI-H23 > 100 µM | SN12C > 100 µM | NCI-H226 > 100 µM | DU-145 > 100 µM | SK-MEL-2 > 100 µM | MDA-MB-435 > 100 µM | SW-620 > 100 µM | NCI/ADR-RES > 100 µM | HOP-62 > 100 µM | UACC-62 > 100 µM | Malme-3M > 100 µM | COLO 205 > 100 µM | UACC-257 > 100 µM

CN(C)C(=O)Oc1ccc(C(=S)Nc2ccccc2)cc1Br
inactive: A549 33 µM | BT-549 31.3 µM | RPMI-8226 22.2 µM | SK-MEL-5 16.9 µM | UO-31 33.5 µM | OVCAR-8 17.6 µM | NCI-H23 22.9 µM | DU-145 54.5 µM | SK-MEL-2 21.9 µM | MDA-MB-435 19.5 µM | SW-620 37.4 µM | NCI/ADR-RES 20.4 µM | HOP-62 45.1 µM | UACC-62 20.3 µM | Malme-3M 33.6 µM | COLO 205 24.2 µM | UACC-257 24.7 µM

COc1ccc2c(c1)CCCN1Cc3ccccc3CC21 (stereo unspecified)
inactive: A549 > 100 µM | BT-549 > 100 µM | SK-MEL-5 22.5 µM | UO-31 44.7 µM | OVCAR-8 > 100 µM | NCI-H23 > 100 µM | SN12C 64.1 µM | NCI-H226 31.5 µM | DU-145 > 100 µM | MDA-MB-435 54.1 µM | SW-620 65.6 µM | NCI/ADR-RES > 100 µM | HOP-62 40.8 µM | UACC-62 91.6 µM | Malme-3M 41.9 µM | COLO 205 40.7 µM | UACC-257 91.2 µM

Cc1cc(-c2nc3ccccc3s2)ccc1NC(=O)[C@@H](N)CCCCN
inactive: A549 6.14 µM | BT-549 10.1 µM | SK-MEL-5 13.9 µM | UO-31 6.71 µM | OVCAR-8 6.78 µM | NCI-H23 6.7 µM | SN12C 16.8 µM | NCI-H226 2.24 µM | DU-145 12.5 µM | SK-MEL-2 13.4 µM | MDA-MB-435 5.24 µM | SW-620 12.7 µM | NCI/ADR-RES 15.8 µM | HOP-62 11.8 µM | UACC-62 13.8 µM | Malme-3M 18.2 µM | COLO 205 12.4 µM | UACC-257 18.4 µM

O=C(O)c1oc(C(=O)O)c(C(=O)O)c1C(=O)O
inactive: A549 > 100 µM | BT-549 > 100 µM | RPMI-8226 > 100 µM | SK-MEL-5 > 100 µM | UO-31 > 100 µM | OVCAR-8 > 100 µM | NCI-H23 > 100 µM | SN12C > 100 µM | NCI-H226 58.9 µM | DU-145 > 100 µM | SK-MEL-2 > 100 µM | SW-620 > 100 µM | NCI/ADR-RES > 100 µM | HOP-62 > 100 µM | UACC-62 > 100 µM | Malme-3M > 100 µM | UACC-257 > 100 µM

CCOC(=O)N/N=C(/N)c1cccc(Br)c1
inactive: A549 > 100 µM | BT-549 > 100 µM | SK-MEL-5 > 100 µM | UO-31 56.1 µM | OVCAR-8 > 100 µM | NCI-H23 > 100 µM | SN12C > 100 µM | DU-145 > 100 µM | SK-MEL-2 > 100 µM | NCI/ADR-RES > 100 µM | HOP-62 > 100 µM | UACC-62 > 100 µM | Malme-3M > 100 µM | COLO 205 > 100 µM | UACC-257 > 100 µM

COC(=O)[C@@H](NS(=O)(=O)CC12CCC(CC1)C2(C)C)C(C)(C)C
inactive: A549 > 100 µM | BT-549 > 100 µM | SK-MEL-5 > 100 µM | UO-31 > 100 µM | OVCAR-8 > 100 µM | NCI-H23 > 100 µM | SN12C > 100 µM | NCI-H226 > 100 µM | DU-145 > 100 µM | SK-MEL-2 > 100 µM | MDA-MB-435 > 100 µM | SW-620 > 100 µM | NCI/ADR-RES > 100 µM | UACC-62 > 100 µM | Malme-3M > 100 µM | COLO 205 > 100 µM | UACC-257 > 100 µM

Cc1ccc(NC(=O)/C(=N\NC(N)=O)c2c(O)c3ccccc3[nH]c2=O)cc1
inactive: A549 > 100 µM | BT-549 > 100 µM | RPMI-8226 > 100 µM | SK-MEL-5 > 100 µM | UO-31 > 100 µM | OVCAR-8 > 100 µM | NCI-H23 > 100 µM | SN12C > 100 µM | NCI-H226 > 100 µM | DU-145 > 100 µM | SK-MEL-2 > 100 µM | MDA-MB-435 > 100 µM | SW-620 > 100 µM | NCI/ADR-RES > 100 µM | UACC-62 > 100 µM | COLO 205 > 100 µM | UACC-257 > 100 µM
